Measurements taken from patent US10787432B2, “N-[(pyridyloxy)propanyl]benzamides” (Boehringer Ingelheim International GmbH, priority 2016, dated 2020).

System: not listed separately
Assay: Assay C: Metabolic stability in human liver microsomes (Human MST)
Format: in vitro ADME
Conditions: pooled human liver microsomes, pH 7.6; human liver microsomes 1 mg/mL, compound 1 μM, 37° C., NADPH; read-out: Human MST t1/2
Outline: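 Test compound (1 μM) was incubated at 37 °C with pooled human liver microsomes (1 mg/mL protein) in 0.1 M TRIS pH 7.6 with 5 mM MgCl2, and reactions were started with 1 mM NADPH. Aliquots were quenched at several time points and parent compound was quantified by LC-MS/MS. t1/2 came from the slope of the semi-log concentration–time plot.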

Row | Compound | half-life at 1 μM
1 | CCN(C(=O)c1cccc(Cl)c1-n1nccn1)[C@@H](C)COc1ncc(C(F)(F)F)cc1F [Example 49] | 81 min
2 | CCN(C(=O)c1cc(F)c(F)cc1-n1nccn1)[C@@H](C)COc1ccc(Cl)cn1 [Example 30] | 52 min
3 | CCN(C(=O)c1ccc(F)cc1-c1ncccn1)[C@@H](C)COc1ccc(Br)cn1 [Example 129] | 30 min
4 | CCN(C(=O)c1ccccc1-c1cncc(C#N)c1)[C@@H](C)COc1ccc(C(F)(F)F)cn1 [Example 76] | 11 min
5 | CCN(C(=O)c1ccccc1-c1ccc(=O)n(C)c1)[C@@H](C)COc1ccc(C(F)(F)F)cn1 [Example 96] | 34 min
6 | CCN(C(=O)c1ccccc1-n1nccn1)[C@@H](C)COc1ccc(C(F)(F)F)cn1 [Example 10] | 24 min
7 | CCN(C(=O)c1ccc(F)c(F)c1-n1nccn1)[C@@H](C)COc1ccc(C(F)(F)F)cn1 [Example 91] | 18 min
8 | CCN(C(=O)c1ccccc1-c1cnc(OC)nc1)[C@@H](C)COc1ccc(C(F)(F)F)cn1 [Example 79] | 12 min
9 | CCN(C(=O)c1ccc(F)cc1-n1nccn1)[C@@H](C)COc1ncc(C(F)(F)F)cc1F [Example 48] | 31 min
10 | CCN(C(=O)c1cccc(F)c1-n1nccn1)[C@@H](C)COc1ccc(C(F)(F)F)cn1 [Example 109] | 75 min
11 | CCN(C(=O)c1cccc(F)c1-c1ncccn1)[C@@H](C)COc1ccc(OC(F)(F)F)cn1 [Example 130] | > 130 min
12 | CCN(C(=O)c1cc(F)cc(F)c1-n1nccn1)[C@@H](C)COc1ccc(OC(F)(F)F)cn1 [Example 126] | 62 min
13 | CCN(C(=O)c1cc(F)ccc1-n1cccn1)[C@@H](C)COc1ncc(C(F)(F)F)cc1F [Example 124] | 10 min
14 | CCN(C(=O)c1ccccc1-c1cnn(C)c1)[C@@H](C)COc1ccc(C(F)(F)F)cn1 [Example 93] | 18 min

Molecular target: T1, human Orexin 1 receptor (Homo sapiens, UniProt O43613)
T1 construct: stably expressing the full-length human Orexin 1 receptor; expressed in transfected cells; host or cells: CHO-K1 (CHO-K1/hOX1), co-expressing aequorin
T1 sequence (O43613 1-425): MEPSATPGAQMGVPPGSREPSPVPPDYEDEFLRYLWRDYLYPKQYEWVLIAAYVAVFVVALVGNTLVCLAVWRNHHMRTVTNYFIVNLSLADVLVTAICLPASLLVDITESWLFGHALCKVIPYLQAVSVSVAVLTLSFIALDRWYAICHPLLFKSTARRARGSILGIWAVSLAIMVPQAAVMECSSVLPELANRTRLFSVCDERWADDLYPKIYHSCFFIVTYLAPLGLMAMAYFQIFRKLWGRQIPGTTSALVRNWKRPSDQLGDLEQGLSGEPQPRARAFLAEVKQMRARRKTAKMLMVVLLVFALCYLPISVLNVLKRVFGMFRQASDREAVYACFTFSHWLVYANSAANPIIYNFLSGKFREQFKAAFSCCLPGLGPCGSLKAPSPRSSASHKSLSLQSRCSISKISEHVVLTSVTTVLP
Assay: Assay A: In vitro testing of OX1R potency: OX1R IP1 (HTRF, CHO-K1/hOX1 cells, Orexin A as agonist)
Format: cell-based
Conditions: OX1R Kb at 0.5 nM Orexin A

Row | Compound | OX2R Kb/OX1R Kb
15 | CCN(C(=O)c1cc(F)c(F)cc1-n1nccn1)[C@@H](C)COc1ccc(Cl)cn1 [Example 30] | 70
16 | CCN(C(=O)c1ccccc1-c1cncc(C#N)c1)[C@@H](C)COc1ccc(C(F)(F)F)cn1 [Example 76] | 113
17 | CCN(C(=O)c1ccccc1-c1ccc(=O)n(C)c1)[C@@H](C)COc1ccc(C(F)(F)F)cn1 [Example 96] | 217
18 | CCN(C(=O)c1ccccc1-c1cnc(OC)nc1)[C@@H](C)COc1ccc(C(F)(F)F)cn1 [Example 79] | 66
19 | CCN(C(=O)c1ccc(F)cc1-n1nccn1)[C@@H](C)COc1ncc(C(F)(F)F)cc1F [Example 48] | 156
20 | CCN(C(=O)c1cc(F)cc(F)c1-n1nccn1)[C@@H](C)COc1ccc(OC(F)(F)F)cn1 [Example 126] | 71
21 | CCN(C(=O)c1cc(F)ccc1-n1cccn1)[C@@H](C)COc1ncc(C(F)(F)F)cc1F [Example 124] | 278

Same assay, conditions: OX1R Kb at 50 nM Orexin A

Row | Compound | OX2R Kb/OX1R Kb
22 | CCN(C(=O)c1cccc(Cl)c1-n1nccn1)[C@@H](C)COc1ncc(C(F)(F)F)cc1F [Example 49] | 333
23 | CCN(C(=O)c1ccc(F)cc1-c1ncccn1)[C@@H](C)COc1ccc(Br)cn1 [Example 129] | 247
24 | CCN(C(=O)c1ccccc1-c1cncc(C#N)c1)[C@@H](C)COc1ccc(C(F)(F)F)cn1 [Example 76] | 125
25 | CCN(C(=O)c1ccccc1-n1nccn1)[C@@H](C)COc1ccc(C(F)(F)F)cn1 [Example 10] | 117
26 | CCN(C(=O)c1ccc(F)c(F)c1-n1nccn1)[C@@H](C)COc1ccc(C(F)(F)F)cn1 [Example 91] | 340
27 | CCN(C(=O)c1ccccc1-c1cnc(OC)nc1)[C@@H](C)COc1ccc(C(F)(F)F)cn1 [Example 79] | 58
28 | CCN(C(=O)c1ccc(F)cc1-n1nccn1)[C@@H](C)COc1ncc(C(F)(F)F)cc1F [Example 48] | 220
29 | CCN(C(=O)c1cccc(F)c1-n1nccn1)[C@@H](C)COc1ccc(C(F)(F)F)cn1 [Example 109] | 327
30 | CCN(C(=O)c1cccc(F)c1-c1ncccn1)[C@@H](C)COc1ccc(OC(F)(F)F)cn1 [Example 130] | 133
31 | CCN(C(=O)c1cc(F)cc(F)c1-n1nccn1)[C@@H](C)COc1ccc(OC(F)(F)F)cn1 [Example 126] | 66
32 | CCN(C(=O)c1ccccc1-c1cnn(C)c1)[C@@H](C)COc1ccc(C(F)(F)F)cn1 [Example 93] | 99

Same assay, conditions: Orexin A 0.5 nM; read-out: OX1R Kb (Orexin A concentration used)

Row | Compound | Kb
33 | CCN(C(=O)c1cc(F)c(F)cc1-n1nccn1)[C@@H](C)COc1ccc(Cl)cn1 [Example 30] | 2.3 nM
34 | CCN(C(=O)c1ccccc1-c1cncc(C#N)c1)[C@@H](C)COc1ccc(C(F)(F)F)cn1 [Example 76] | 1.1 nM
35 | CCN(C(=O)c1ccccc1-c1ccc(=O)n(C)c1)[C@@H](C)COc1ccc(C(F)(F)F)cn1 [Example 96] | 7.4 nM
36 | CCN(C(=O)c1ccccc1-c1cnc(OC)nc1)[C@@H](C)COc1ccc(C(F)(F)F)cn1 [Example 79] | 1.4 nM
37 | CCN(C(=O)c1ccc(F)cc1-n1nccn1)[C@@H](C)COc1ncc(C(F)(F)F)cc1F [Example 48] | 1.31 nM
38 | CCN(C(=O)c1cc(F)cc(F)c1-n1nccn1)[C@@H](C)COc1ccc(OC(F)(F)F)cn1 [Example 126] | 0.58 nM
39 | CCN(C(=O)c1cc(F)ccc1-n1cccn1)[C@@H](C)COc1ncc(C(F)(F)F)cc1F [Example 124] | 3.8 nM

Same assay, conditions: Orexin A 50 nM; read-out: OX1R Kb (Orexin A concentration used)

Row | Compound | Kb
40 | CCN(C(=O)c1cccc(Cl)c1-n1nccn1)[C@@H](C)COc1ncc(C(F)(F)F)cc1F [Example 49] | 0.066 nM
41 | CCN(C(=O)c1ccc(F)cc1-c1ncccn1)[C@@H](C)COc1ccc(Br)cn1 [Example 129] | 0.17 nM
42 | CCN(C(=O)c1ccccc1-c1cncc(C#N)c1)[C@@H](C)COc1ccc(C(F)(F)F)cn1 [Example 76] | 0.99 nM
43 | CCN(C(=O)c1ccccc1-n1nccn1)[C@@H](C)COc1ccc(C(F)(F)F)cn1 [Example 10] | 0.18 nM
44 | CCN(C(=O)c1ccc(F)c(F)c1-n1nccn1)[C@@H](C)COc1ccc(C(F)(F)F)cn1 [Example 91] | 0.2 nM
45 | CCN(C(=O)c1ccccc1-c1cnc(OC)nc1)[C@@H](C)COc1ccc(C(F)(F)F)cn1 [Example 79] | 1.6 nM
46 | CCN(C(=O)c1ccc(F)cc1-n1nccn1)[C@@H](C)COc1ncc(C(F)(F)F)cc1F [Example 48] | 0.93 nM
47 | CCN(C(=O)c1cccc(F)c1-n1nccn1)[C@@H](C)COc1ccc(C(F)(F)F)cn1 [Example 109] | 0.11 nM
48 | CCN(C(=O)c1cccc(F)c1-c1ncccn1)[C@@H](C)COc1ccc(OC(F)(F)F)cn1 [Example 130] | 0.15 nM
49 | CCN(C(=O)c1cc(F)cc(F)c1-n1nccn1)[C@@H](C)COc1ccc(OC(F)(F)F)cn1 [Example 126] | 0.62 nM
50 | CCN(C(=O)c1ccccc1-c1cnn(C)c1)[C@@H](C)COc1ccc(C(F)(F)F)cn1 [Example 93] | 0.75 nM

Molecular target: T2, human orexin 2 receptor (Homo sapiens, UniProt O43614)
T2 construct: stably expressing the full-length human orexin 2 receptor; expressed in transfected cells; host or cells: CHO-K1 (CHO-K1/hOX2), co-expressing aequorin
T2 sequence (O43614 1-444): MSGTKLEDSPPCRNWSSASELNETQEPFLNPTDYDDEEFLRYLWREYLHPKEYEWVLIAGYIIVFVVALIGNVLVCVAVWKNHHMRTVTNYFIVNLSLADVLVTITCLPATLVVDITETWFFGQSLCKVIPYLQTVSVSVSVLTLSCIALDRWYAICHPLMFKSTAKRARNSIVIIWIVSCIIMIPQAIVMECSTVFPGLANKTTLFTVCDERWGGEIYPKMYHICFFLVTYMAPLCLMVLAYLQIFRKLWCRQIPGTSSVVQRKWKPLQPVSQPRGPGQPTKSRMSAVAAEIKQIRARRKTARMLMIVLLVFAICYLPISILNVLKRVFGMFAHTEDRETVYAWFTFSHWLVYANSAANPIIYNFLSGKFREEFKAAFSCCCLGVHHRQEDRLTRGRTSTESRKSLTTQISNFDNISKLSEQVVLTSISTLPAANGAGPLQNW
Assay: Assay B: In vitro testing of OX2R potency: OX2R IP1 (HTRF, CHO-K1/hOX2 cells, Orexin A as agonist)
Format: cell-based
Conditions: Orexin A 0.5 nM
Outline: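 CHO-K1 cells stably expressing full-length human OX2R, pretreated 15 min at room temperature with compound (8-point, 1% DMSO) in HBSS/HEPES/BSA with 50 mM LiCl, pH 7.4, then stimulated 60 min at 37 °C with 0.5 nM Orexin A. IP1 by HTRF (665/615 ratio); IC50 from 4-parameter fit converted to agonist-independent Kb.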

Row | Compound | Kb
51 | CCN(C(=O)c1cccc(Cl)c1-n1nccn1)[C@@H](C)COc1ncc(C(F)(F)F)cc1F [Example 49] | 22 nM
52 | CCN(C(=O)c1cc(F)c(F)cc1-n1nccn1)[C@@H](C)COc1ccc(Cl)cn1 [Example 30] | 160 nM
53 | CCN(C(=O)c1ccc(F)cc1-c1ncccn1)[C@@H](C)COc1ccc(Br)cn1 [Example 129] | 42 nM
54 | CCN(C(=O)c1ccccc1-c1cncc(C#N)c1)[C@@H](C)COc1ccc(C(F)(F)F)cn1 [Example 76] | 124 nM
55 | CCN(C(=O)c1ccccc1-c1ccc(=O)n(C)c1)[C@@H](C)COc1ccc(C(F)(F)F)cn1 [Example 96] | 1610 nM
56 | CCN(C(=O)c1ccccc1-n1nccn1)[C@@H](C)COc1ccc(C(F)(F)F)cn1 [Example 10] | 21 nM
57 | CCN(C(=O)c1ccc(F)c(F)c1-n1nccn1)[C@@H](C)COc1ccc(C(F)(F)F)cn1 [Example 91] | 68 nM
58 | CCN(C(=O)c1ccccc1-c1cnc(OC)nc1)[C@@H](C)COc1ccc(C(F)(F)F)cn1 [Example 79] | 92 nM
59 | CCN(C(=O)c1ccc(F)cc1-n1nccn1)[C@@H](C)COc1ncc(C(F)(F)F)cc1F [Example 48] | 205 nM
60 | CCN(C(=O)c1cccc(F)c1-n1nccn1)[C@@H](C)COc1ccc(C(F)(F)F)cn1 [Example 109] | 36 nM
61 | CCN(C(=O)c1cccc(F)c1-c1ncccn1)[C@@H](C)COc1ccc(OC(F)(F)F)cn1 [Example 130] | 20 nM
62 | CCN(C(=O)c1cc(F)cc(F)c1-n1nccn1)[C@@H](C)COc1ccc(OC(F)(F)F)cn1 [Example 126] | 41 nM
63 | CCN(C(=O)c1cc(F)ccc1-n1cccn1)[C@@H](C)COc1ncc(C(F)(F)F)cc1F [Example 124] | 1060 nM
64 | CCN(C(=O)c1ccccc1-c1cnn(C)c1)[C@@H](C)COc1ccc(C(F)(F)F)cn1 [Example 93] | 74 nM
